Measurements reported in US20190010158A1, “ANTITUMOR EFFECT POTENTIATOR COMPRISING PYRROLOPYRIMIDINE COMPOUND” (TAIHO PHARMACEUTICAL CO., LTD, priority 2015, published 2019).
Counter-ions that a name gives are not always drawn. Each block holds one compound with its values, some of them ahead of it.

How the values were obtained:
[1] = tested on: human clear cell sarcoma SU-CCS-1 cell lines; assay: Example 18: tumor growth inhibition in mice, combinational treatment with doxorubicin; assay type: in vivo; conditions: day 22
Description: (§1) RTVn=TVn/TV1 (equation D)
(§2) BWCn (%)=(BWn−BW1)/BW1×100 (equation F)
The test ended on day 22.
The control group was untreated.

[2] = tested on: tumor cell line shown in Table 34; assay: Example 7: combined use with Exportin-1 inhibitor, cell growth inhibition test (IC50 ratio, CI); assay type: cell-based; conditions: HCT116; for CI: at ED50
[3] = tested on: tumor cell lines shown in Table 40; assay: Example 10: combined use with HDAC inhibitor, cell growth inhibition test (IC50 ratio, CI); assay type: cell-based; conditions: U266B1; for Comprehensive Evaluation: combined use with Reference Example Compound 55; for CI: at ED50
[4] = tested on: tumor cell line shown in Table 36; assay: Example 8: combined use with BTK inhibitor, cell growth inhibition test (IC50 ratio, CI); assay type: cell-based; conditions: MV-4-11; for CI: at ED50
[5] = tested on: tumor cell line shown in Table 38; assay: Example 9: combined use with BCL-2 inhibitor, cell growth inhibition test (IC50 ratio, CI); assay type: cell-based; conditions: MOLT-4; for CI: at ED50
HL-60 = assay: Example 1: combined use with proteasome inhibitor, cell growth inhibition test (IC50 ratio, CI), HL-60; assay type: cell-based; conditions: for CI: at ED50
U266B1 = assay: Example 1: combined use with proteasome inhibitor, cell growth inhibition test (IC50 ratio, CI), U266B1; assay type: cell-based, human; conditions: for CI: at ED50
[6] = tested on: Human multiple myeloma (MM) KMS-26 cell lines; assay: Example 16: tumor growth inhibition in mice, combinational treatment with bortezomib; assay type: in vivo; conditions: KMS-26 in mice; 1 mg/kg/day, days 1, 4, 8, 11; day 15
Description: The test ended on day 15.
A necessary amount of the test compound was weighed to prepare a solution to administer to the mice.
as §1, §2

[7] = tested on: tumor cell line shown in Table 28; assay: Example 4: combined use with PARP inhibitor, cell growth inhibition test (IC50 ratio, CI); assay type: cell-based; conditions: A549; for CI: at ED50
[8] = tested on: human acute T lymphoblastic leukemia CCRF-CEM cell lines; assay: Cell growth inhibition 1 (CellTiter-Glo); assay type: cell-based; conditions: culture with test compound 72 hours
[9] = tested on: human colon cancer HCT116 cell line; assay: Cell growth inhibition 2, HCT116; assay type: cell-based; conditions: HCT-116
[10] = tested on: human pancreatic cancer Capan-1 cell line; assay: Cell growth inhibition 2, Capan-1; assay type: cell-based
[11] = tested on: human lung cancer A-427 cell line; assay: Cell growth inhibition 2, A-427; assay type: cell-based
[12] = tested on: human breast cancer MDA-MB-453 cell line; assay: Cell growth inhibition 2, MDA-MB-453; assay type: cell-based
[13] = tested on: human prostate cancer LNCAP.FGC cell line; assay: Cell growth inhibition 2, LNCaP.FGC; assay type: cell-based
[14] = tested on: human osteo- and soft tissue sarcoma SJCRH30 cell line; assay: Cell growth inhibition 2, SJCRH30; assay type: cell-based
[15] = tested on: human multiple myeloma U266B1 cell line; assay: Cell growth inhibition 2, U266B1; assay type: cell-based
[16] = tested on: human skin cancer A-431 cell line; assay: Cell growth inhibition 2, A-431; assay type: cell-based
[17] = tested on: human acute leukemia MV-4-11 cell line; assay: Cell growth inhibition 2, MV-4-11; assay type: cell-based; conditions: MV4-11
[18] = tested on: human diffuse large B-cell lymphoma DB cell line; assay: Cell growth inhibition 2, DB; assay type: cell-based
[19] = tested on: tumor cell lines shown in Table 58; assay: Example 22: combined use with IAP antagonist, cell growth inhibition test (IC50 ratio, CI); assay type: cell-based; conditions: HL-60; for CI: at ED50
[20] = biological target: T1, NAE (heterodimer of APPBP1 and UBA3) (Homo sapiens, UniProt Q8TBC4); assay: Nedd8 conjugation inhibitory activity (AlphaScreen); assay type: biochemical; conditions: purified NAE, GST-UBC12, ATP, Biotin-Nedd8, reaction 90 minutes
T1 construct: amino acids 1 to 463 of human UBA3 protein; made in house; host or cells: Sf9 insect cells (baculovirus co-infection) for NAE; E. coli BL21 (DE3) for GST-UBC12
T1 sequence (Q8TBC4 1-463): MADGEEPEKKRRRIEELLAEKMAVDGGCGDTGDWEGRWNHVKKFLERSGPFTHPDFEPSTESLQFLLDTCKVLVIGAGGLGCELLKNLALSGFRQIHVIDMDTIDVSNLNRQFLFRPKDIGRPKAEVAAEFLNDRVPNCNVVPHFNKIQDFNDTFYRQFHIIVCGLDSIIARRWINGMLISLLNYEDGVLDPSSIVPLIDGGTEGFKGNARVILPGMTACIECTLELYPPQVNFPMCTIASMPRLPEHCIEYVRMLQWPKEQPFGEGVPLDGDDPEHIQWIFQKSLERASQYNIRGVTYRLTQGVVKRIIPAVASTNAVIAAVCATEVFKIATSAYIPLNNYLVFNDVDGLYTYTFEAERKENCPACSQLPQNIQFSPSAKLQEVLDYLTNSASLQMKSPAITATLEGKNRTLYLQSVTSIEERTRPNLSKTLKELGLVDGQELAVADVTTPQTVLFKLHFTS
T1 sequence (Q13564 1-534 partner): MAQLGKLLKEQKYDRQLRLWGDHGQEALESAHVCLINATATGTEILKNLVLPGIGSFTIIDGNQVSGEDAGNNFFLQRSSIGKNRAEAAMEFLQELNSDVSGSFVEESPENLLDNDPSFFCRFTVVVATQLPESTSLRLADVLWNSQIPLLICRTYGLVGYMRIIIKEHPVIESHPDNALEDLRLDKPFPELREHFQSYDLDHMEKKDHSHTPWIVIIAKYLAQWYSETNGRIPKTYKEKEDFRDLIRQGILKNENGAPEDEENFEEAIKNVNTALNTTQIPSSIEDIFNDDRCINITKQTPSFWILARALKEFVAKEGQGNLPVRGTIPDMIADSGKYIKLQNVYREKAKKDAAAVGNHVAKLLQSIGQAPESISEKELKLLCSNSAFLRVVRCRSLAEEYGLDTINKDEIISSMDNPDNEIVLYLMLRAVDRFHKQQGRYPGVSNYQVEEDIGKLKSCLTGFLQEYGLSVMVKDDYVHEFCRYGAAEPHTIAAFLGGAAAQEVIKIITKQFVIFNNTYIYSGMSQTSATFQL

[21] = SU-CCS-1 in mice, intravenously 8 mg/kg/day, day 1
[22] = IC50 of Reference Example Compound 55 : IC50 of other compound = 1:value
[23] = combined use with Reference Example Compound 55
[24] = Reference Example Compound 55:other compound 1:10
[25] = Reference Example Compound 55:other compound 1:30
[26] = Reference Example Compound 55:other compound 1:0.07

SMILES: COc1cccc2c1C(=O)c1c(O)c3c(c(O)c1C2=O)C[C@@](O)(C(=O)CO)C[C@@H]3O[C@H]1C[C@H](N)[C@H](O)[C@H](C)O1 [doxorubicin hydrochloride]
- RTV22 compared with the control group (Dunnett's test) ([1]; SU-CCS-1 in BALB/cAJcl-nu/nu mice, reference example compound 12.5 or 25 mg/kg/day iv day 1 and 8, doxorubicin hydrochloride 8 mg/kg/day iv day 1): significantly lower
- BWC22 (%) Mean ± SD [1, 21]: −0.3 ± 2.6%
- RTV22 Mean ± SD [1, 21]: 6.6 ± 0.8
- T/C22 (%) [1, 21]: 74%

SMILES: O=C(CCCCCCC(=O)Nc1ccccc1)NO [Vorinostat, vorinostat]
- Comprehensive Evaluation [3]: Additive (0.9-1.10)

SMILES: C=CC(=O)N1CCC[C@@H](n2nc(-c3ccc(Oc4ccccc4)cc3)c3c(N)ncnc32)C1 [Ibrutinib, ibrutinib]
- IC50 Ratio [4, 22]: 140
- CI ([4]; Reference Example Compound 55:other compound 1:111): 0.70
- CI ([4]; Reference Example Compound 55:other compound 1:333): 0.72

SMILES: CC1(C)CCC(CN2CCN(c3ccc(C(=O)NS(=O)(=O)c4ccc(NCC5CCOCC5)c([N+](=O)[O-])c4)c(Oc4cnc5[nH]ccc5c4)c3)CC2)=C(c2ccc(Cl)cc2)C1 [ABT-199]
- IC50 Ratio [5, 22]: 119
- CI ([5]; Reference Example Compound 55:other compound 1:60): 0.37
- CI ([5]; Reference Example Compound 55:other compound 1:180): 0.40
- Comprehensive Evaluation [5, 23]: Synergism (0.3-0.7)

SMILES: CC(C)C[C@H](NC(=O)CNC(=O)c1cc(Cl)ccc1Cl)B(O)O [Ixazomib, ixazomib]
- IC50 Ratio (HL-60; [22]): 19
- CI (HL-60; [24]): 0.82
- CI (HL-60; [25]): 0.94
- Comprehensive Evaluation (HL-60; [23]): Additive (0.9-1.10)

SMILES: CC(C)C[C@H](NC(=O)[C@H](Cc1ccccc1)NC(=O)c1cnccn1)B(O)O [Bortezomib, bortezomib]
- IC50 Ratio (U266B1; [22]): 0.05
- CI (U266B1; Reference Example Compound 55:other compound 1:0.02): 0.56
- CI (U266B1; [26]): 0.51
- Comprehensive Evaluation (U266B1; [23]): Synergism (0.3-0.7)
- BWC15 (%) Mean ± SD [6]: 1.3 ± 3.2%
- RTV15 Mean ± SD [6]: 6.9 ± 3.2
- T/C15 (%) [6]: 66%

SMILES: CN[C@@H](C)C(=O)N[C@H](C(=O)N1CCC[C@H]1C(=O)Nc1snnc1-c1ccccc1)C1CCCCC1 [GDC-0152]
- IC50 Ratio [19, 22]: 2122
- CI ([19]; Reference Example Compound 55:other compound 1:90): 0.45
- CI ([19]; Reference Example Compound 55:other compound 1:270): 0.62
- Comprehensive Evaluation [19, 23]: Synergism (0.3-0.7)

Further lines, with some results ahead:

- IC50 Ratio [2, 22]: 21
SMILES: O=C(/C=C\n1cnc(-c2cc(C(F)(F)F)cc(C(F)(F)F)c2)n1)NNc1cnccn1 [KPT-330]
- CI ([2]; Reference Example Compound 55:other compound 1:11): 0.69
- CI ([2]; Reference Example Compound 55:other compound 1:33): 0.75
- Comprehensive Evaluation [2, 23]: Moderate

- IC50 Ratio [3, 22]: 0.08
SMILES: Cc1[nH]c2ccccc2c1CCNCc1ccc(/C=C/C(=O)NO)cc1 [Panobinostat, panobinostat]
- CI [3, 26]: 0.90
- CI ([3]; Reference Example Compound 55:other compound 1:0.22): 0.61
- Comprehensive Evaluation [3]: Additive (0.9-1.10)

- IC50 Ratio [7, 22]: 21
SMILES: O=C(c1cc(Cc2n[nH]c(=O)c3ccccc23)ccc1F)N1CCN(C(=O)C2CC2)CC1 [Olaparib, olaparib]
- CI [7, 24]: 0.61
- CI [7, 25]: 0.69
- Comprehensive Evaluation [7, 23]: Synergism (0.3-0.7)

- IC50 [8]: 4 nM
- IC50 [9]: 14 nM
- IC50 [10]: 560 nM
- IC50 [11]: 49 nM
- IC50 [12]: 640 nM
- IC50 [13]: 280 nM
- IC50 [14]: 6600 nM
- IC50 [15]: 420 nM
- IC50 [16]: 560 nM
- IC50 [17]: 20 nM
- IC50 [18]: 150 nM
SMILES: Nc1ncnc2c1c(C#Cc1c(F)cc(N3CC[C@@H](F)C3)cc1F)cn2[C@@H]1O[C@H](CNS(N)(=O)=O)[C@@H](O)[C@H]1O [Reference Example 29, 4-Amino-5-[2-[2,6-difluoro-4-[(3R)-3-fluoropyrrolidin-1-yl]phenyl]ethynyl]-7-[(2R,3R,4S,5R)-3,4-dihydroxy-5-[(sulfamoylamino)methyl]tetrahydrofuran-2-yl]pyrrolo[2,3-d]pyrimidine]

- IC50 [8]: 3.2 nM
- IC50 [9]: 12 nM
- IC50 [10]: 210 nM
- IC50 [11]: 6.4 nM
- IC50 [12]: 32 nM
- IC50 [13]: 460 nM
- IC50 [14]: 170 nM
- IC50 [15]: 24 nM
- IC50 [16]: 160 nM
- IC50 [17]: 25 nM
- IC50 [18]: 130 nM
SMILES: CSc1cccc(F)c1C#Cc1cn([C@@H]2C=C(CNS(N)(=O)=O)[C@@H](O)[C@H]2O)c2ncnc(N)c12 [Reference Example 130, 4-Amino-7-[(1R,4R,5S)-4,5-dihydroxy-3-[(sulfamoylamino)methyl]cyclopent-2-en-1-yl]-5-[2-(2-fluoro-6-methylsulfanyl-phenyl)ethynyl]pyrrolo[2,3-d]pyrimidine]

- IC50 [20]: ≤ 0.003 µM
- IC50 [8]: 6.2 nM
- IC50 [9]: 16 nM
- IC50 [10]: 730 nM
- IC50 [11]: 22 nM
- IC50 [12]: 460 nM
- IC50 [13]: 650 nM
- IC50 [14]: > 10000 nM
- IC50 [15]: 110 nM
- IC50 [16]: 730 nM
- IC50 [17]: 21 nM
- IC50 [18]: 260 nM
SMILES: Nc1ncnc2c1c(C#Cc1c(F)cccc1F)cn2[C@@H]1O[C@H](CNS(N)(=O)=O)[C@@H](O)[C@H]1O [Reference Example 1, 4-Amino-5-[2-(2,6-difluorophenyl)ethynyl]-7-[(2R,3R,4S,5R)-3,4-dihydroxy-5-[(sulfamoylamino)methyl]tetrahydrofuran-2-yl]pyrrolo[2,3-d]pyrimidine]
